Experimental data reported in ChEMBL document CHEMBL1136790, “Identification of 1-arylmethyl-3- (2-aminoethyl)-5-aryluracil as novel gonadotropin-releasing hormone receptor antagonists” (J Med Chem, 2003).

These compounds were tested against T1, Gonadotropin-releasing hormone receptor (Homo sapiens, UniProt P30968) (assay: Binding affinity was determined towards human gonadotropin-releasing hormone receptor).
T1 sequence (P30968 whole entry): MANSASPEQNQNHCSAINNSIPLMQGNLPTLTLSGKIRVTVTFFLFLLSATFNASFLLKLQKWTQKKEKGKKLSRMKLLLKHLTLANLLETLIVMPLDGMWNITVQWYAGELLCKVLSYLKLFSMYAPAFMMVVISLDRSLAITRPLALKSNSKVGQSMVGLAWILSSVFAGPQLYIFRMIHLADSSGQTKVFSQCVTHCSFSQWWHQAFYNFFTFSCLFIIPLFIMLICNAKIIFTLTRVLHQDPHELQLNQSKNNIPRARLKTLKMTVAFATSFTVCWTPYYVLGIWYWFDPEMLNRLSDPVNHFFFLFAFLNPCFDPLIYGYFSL

Compound	Ki [nM]
COc1cccc(-c2c(C)n(Cc3c(F)cccc3F)c(=O)n(CCN3CCC[C@H]3Cc3ccccn3)c2=O)c1	130
COc1cccc(-c2c(C)n(Cc3c(F)cccc3F)c(=O)n(CCN3CCCC3c3ccccn3)c2=O)c1 (stereo unspecified)	530
COc1cccc(-c2cn(Cc3c(F)cccc3F)c(=O)n(CCN(C)CCc3ccccn3)c2=O)c1	1700
COc1cccc(-c2c(C)n(Cc3c(F)cccc3F)c(=O)n(CCNCCc3c[nH]cn3)c2=O)c1	3800
COc1cccc(-c2c(C)n(Cc3c(F)cccc3F)c(=O)n(CCNCCc3ccccc3)c2=O)c1	1100
COc1cccc(-c2c(C)n(Cc3c(F)cccc3F)c(=O)n(CCN3CCC[C@@H]3Cc3ccccn3)c2=O)c1	4800

Results, then the compound that gave them:

Ki [nM]	Compound
220	CCc1cccc(-c2c(C)n(Cc3c(F)cccc3F)c(=O)n(CCN(C)CCc3ccccn3)c2=O)c1
400	Cc1c(-c2ccccc2)c(=O)n(CCN(C)CCc2ccccn2)c(=O)n1Cc1c(F)cccc1F
2200	CCc1c(-c2cccc(OC)c2)c(=O)n(CCN(C)CCc2ccccn2)c(=O)n1Cc1c(F)cccc1F
38	Cc1c(-c2ccc3c(c2)OCO3)c(=O)n(CCN(C)CCc2ccccn2)c(=O)n1Cc1c(F)cccc1F
30	Cc1c(-c2ccc(Oc3ccccc3)cc2)c(=O)n(CCN(C)CCc2ccccn2)c(=O)n1Cc1c(F)cccc1F
480	Cc1c(-c2cccc(O)c2)c(=O)n(CCN(C)CCc2ccccn2)c(=O)n1Cc1c(F)cccc1F
24	Cc1c(-c2ccc3c(c2)OCCO3)c(=O)n(CCN(C)CCc2ccccn2)c(=O)n1Cc1c(F)cccc1F
230	COc1ccc(-c2c(C)n(Cc3c(F)cccc3F)c(=O)n(CCN(C)CCc3ccccn3)c2=O)cc1
4800	Cc1c(-c2cccc(OC(F)(F)F)c2)c(=O)n(CCN(C)CCc2ccccn2)c(=O)n1Cc1c(F)cccc1F

Each compound was assayed against T1, Gonadotropin-releasing hormone receptor (assay: Binding affinity was determined towards human Gonadotropin-releasing hormone receptor).

Ki [nM]	Compound
240	COc1cccc(-c2c(C)n(Cc3c(F)cccc3F)c(=O)n(CCNCc3ccccc3)c2=O)c1
